This test relates to patients. The arrangement: species or system human. As to conditions: in vivo.

Here are results for one compound from patent US10933057B2 (priority 2017, dated 2021).

Take `CCCCC(C)(O)C/C=C/[C@H]1[C@H](O)CC(=O)[C@@H]1CCCCCCC(=O)OC` (mixture of isomers) [Misoprostol]: the “Pain (No pain −, Pain +)” value is given as “+”.
